As usually defined, the IC50 is the concentration at which inhibition is half-maximal.

Results on 21 molecules are retold here after patent US8912181B2 (Taiho Pharmaceutical Co., Ltd., priority 2011, dated 2014).

Each structure is given as a SMILES string.

One assay concerns SK-BR-3 cells. The assay is described as follows: Determination of cell growth inhibition (crystal violet staining method). The format is cell-based. The following applies: Homo sapiens; breast cancer cells SK-BR-3, 72 hours culture with test substance. As for the experimental part:
Cell growth was assayed by a crystal violet staining method. SK-BR-3 cells (HTB-30) purchased from American Type Culture Collection were inoculated at a concentration of 5,000 cells/well to a 96-well plate (#353075, BD Biosciences). After culture at 37° C. for 24 hours in a 5% CO2 incubator, each test substance was added thereto, and the cells were further cultured for 72 hours. A 25% glutaraldehyde solution (#17025-25, Nacalai Tesque, Inc.) was added thereto at a concentration of 20 μL/well per 200 μL of the medium, and the plate was incubated at room temperature for 20 minutes to fix the cells. The plate was washed with water and dried. Then, a solution containing 0.05% crystal violet (#038-17792, Wako Pure Chemical Industries, Ltd.) and 20% methanol was added thereto at a concentration of 100 μL/well, and the plate was incubated at room temperature for 20 minutes to stain the cells. The plate was washed with water and dried. A mixed solution of 0.05 M NaH2PO4 and ethanol (mixed in equal amounts) was added thereto at a concentration of 100 μL/well. Absorbance was measured at 540 nm using a microplate reader (MTP-450, Corona Electric Co., Ltd.) and used as an index for the number of cells per well. Percent inhibition (%) of cell growth by each compound of the present invention was determined according to the formula shown below with the absorbance of no drug addition group as a control. […] Percent inhibition (%)=(C−T)/C×100, wherein T: Absorbance of well with test substance addition C: Absorbance of well without test substance addition.

Assay [1] addresses human HSP90 alpha protein (N-terminal, amino acids 2 to 236) (Homo sapiens (Human), UniProt P07900). Put plainly: Determination of HSP90-binding activity (AlphaScreen competitive assay with biotinylated geldanamycin). The conditions noted are these: inhibition of binding of biotinylated geldanamycin to purified HSP90 N-terminal protein, read-out: HSP-binding activity IC50. As for the experimental part:
First, a purified HSP90 solution was prepared as follows: a human HSP90 alpha gene (NCBI Reference Sequence accession no. NM-005348) region corresponding to amino acids 2 to 236 of human HSP90 alpha protein (NCBI Reference Sequence accession no. NP-005339; full length: 732 amino acids) was inserted to pET-19b (Novagen; Merck KGaA) to construct a plasmid pET-HS[…] for expression of the HSP90 N-terminal protein having a His-tag at the N-terminus. E. coli (BL21(DE3), Stratagene Corp.) was transformed with pET-HS[…] and then cultured at 37° C. for 4 hours in the presence of 0.5 mM isopropyl-beta-D-thiogalactopyranoside (Sigma-Aldrich Corp.). The collected E. coli was suspended in a lysis buffer (50 mM Tris-HCl (pH 7.5), 200 mM NaCl) and sonicated. The sonicated cell solution was centrifuged (40,000×g, 20 minutes), and the supernatant was used as a crude extract. This crude extract was fractionated using Ni Sepharose High Performance (GE Healthcare Japan Corp.) chromatography and HiLoad 26/60 Superdex 75 pg (GE Healthcare Japan Corp.). Then, a fraction of HSP90 protein concentrates was prepared in a solution containing 50 mM Tris-HCl (pH 7.5) and 20% glycerol as a purified HSP90 solution. The purified HSP90 solution was divided and stored at -80° C. until use. HSP90-binding activity was determined by an AlphaScreen competitive assay system. […] After reaction at room temperature for 2 hours, biotinylated geldanamycin was added thereto at a concentration of 40 nM/well and further reacted for 1 hour. Detection mix (20 mM HEPES-KOH (pH 7.5), 0.5% BSA, 0.04 mg/mL Nickel Chelate Acceptor beads, 0.04 mg/mL Streptavidin-coated Donor beads) (#6760619C, PerkinElmer, Inc.) was added to each well in an amount equal to the amount of the reaction solution and reacted at room temperature for 1 hour in the dark. Then, fluorescence intensity was measured using Multilabel Plate Reader EnVision (PerkinElmer, Inc.). Percent inhibition (%) of the binding of biotinylated geldanamycin by each compound of the present invention was determined according to the formula shown below with the fluorescence signal of no test substance addition group as a control. […] Percent inhibition (%)=(C-T)/C×100, wherein T: Signal of well with test substance addition C: Signal of well without test substance addition.
On the technique in general: Bead proximity is the source of the signal in Alpha formats.

For `CNC(=O)c1ccc(-c2cccc3c(-c4ccc(C(N)=O)c(NC5CCC(O)CC5)c4)nccc23)cn1` (stereo not drawn) [Example 56, 5-(1-(4-Carbamoyl-3-(4-hydroxycyclohexylamino)phenyl)isoquinolin-5-yl)-N-methylpicolinamide], the IC50 in the assay with SK-BR-3 cells was found to be 470 nM; in assay [1], 370 nM.

On to `CNc1cc(-c2nccc3c(-n4cnc(-c5cnn(C)c5)c4)cccc23)ccc1C(N)=O` [Example 58, 4-(5-(4-(1-Methyl-1H-pyrazol-4-yl)-1H-imidazol-1-yl)isoquinolin-1-yl)-2-(methylamino)benzamide], for which the IC50 in the assay on SK-BR-3 cells turned out to be 1440 nM; in assay [1] it was 250 nM.

For the molecule `Cn1cc(-c2cn(-c3cccc4c(-c5ccc(C(N)=O)c(NCC6CCCO6)c5)nccc34)cn2)cn1` (stereo not drawn) [Example 59, 4-(5-(4-(1-Methyl-1H-pyrazol-4-yl)-1H-imidazol-1-yl)isoquinolin-1-yl)-2-((tetrahydrofuran-2-yl)methylamino)benzamide], the IC50 came to 90 nM in the assay on SK-BR-3 cells and 100 nM in assay [1].

Turning to `Cn1cc(-c2cn(-c3cccc4c(-c5ccc(C(N)=O)c(NCCc6ccccn6)c5)nccc34)cn2)cn1` [Example 60, 4-(5-(4-(1-Methyl-1H-pyrazol-4-yl)-1H-imidazol-1-yl)isoquinolin-1-yl)-2-(2-(pyridin-2-yl)ethylamino)benzamide], the IC50 with SK-BR-3 cells was determined as 150 nM; in assay [1], 170 nM.

`CC(C)Nc1cc(-c2nccc3c(-n4cnc(-c5cnn(C)c5)c4)cccc23)ccc1C(N)=O` [Example 61, 2-(Isopropylamino)-4-(5-(4-(1-methyl-1H-pyrazol-4-yl)-1H-imidazol-1-yl)isoquinolin-1-yl)benzamide]: the IC50 with SK-BR-3 cells came out at 70 nM; in assay [1], 190 nM.

As to `COCCNc1cc(-c2nccc3c(-n4cnc(-c5cnn(C)c5)c4)cccc23)ccc1C(N)=O` [Example 62, 2-(2-Methoxyethylamino)-4-(5-(4-(1-methyl-1H-pyrazol-4-yl)-1H-imidazol-1-yl)isoquinolin-1-yl)benzamide], the IC50 with SK-BR-3 cells came out at 260 nM; in assay [1], 210 nM.

With `CC(C)Nc1cc(-c2cc(C(F)(F)F)nc3c(-n4cnc(-c5cnn(C)c5)c4)cccc23)ccc1C(N)=O` [Example 64], the concentration for half-maximal inhibition (IC50) in the assay with SK-BR-3 cells came out at 10 nM; in assay [1], 170 nM.

`CCNc1cc(-c2nc(C)cc3c(-n4cnc(-c5cnn(C)c5)c4)cccc23)ccc1C(N)=O` [Example 66, 2-(Ethylamino)-4-(3-methyl-5-(4-(1-methyl-1H-pyrazol-4-yl)-1H-imidazol-1-yl)isoquinolin-1-yl)benzamide]: the IC50 turned out to be 20 nM with SK-BR-3 cells and 150 nM in assay [1].

Regarding `Cc1cc2c(-n3cnc(-c4cnn(C)c4)c3)cccc2c(-c2ccc(C(N)=O)c(NC(C)C)c2)n1` [Example 67, 2-(Isopropylamino)-4-(3-methyl-5-(4-(1-methyl-1H-pyrazol-4-yl)-1H-imidazol-1-yl)isoquinolin-1-yl)benzamide], the results for the IC50 (with SK-BR-3 cells; in assay [1]) were 20 nM and 210 nM, respectively.

Regarding `Cc1cc2c(-n3cnc(-c4cnn(C)c4)c3)cccc2c(-c2ccc(C(N)=O)c(NCC3CC3)c2)n1` [Example 68, 2-(Cyclopropylmethylamino)-4-(3-methyl-5-(4-(1-methyl-1H-pyrazol-4-yl)-1H-imidazol-1-yl)isoquinolin-1-yl)benzamide], the IC50 with SK-BR-3 cells was 10 nM; in assay [1], 190 nM.

Consider `Cn1cc(-c2cn(-c3cccc4c(-c5ccc(C(N)=O)c(N)c5)cc(C(F)(F)F)nc34)cn2)cn1` [Example 69, 2-Amino-4-(8-(4-(1-methyl-1H-pyrazol-4-yl)-1H-imidazol-1-yl)-2-(trifluoromethyl)quinolin-4-yl)benzamide], for which the half-maximal inhibitory concentration (IC50) came out at 20 nM with SK-BR-3 cells and 150 nM in assay [1].

Turning to `Cn1cc(-c2cn(-c3cccc4c(-c5ccc(C(N)=O)c(F)c5)cc(C(F)(F)F)nc34)cn2)cn1` [Example 70, 2-Fluoro-4-(8-(4-(1-methyl-1H-pyrazol-4-yl)-1H-imidazol-1-yl)-2-(trifluoromethyl)quinolin-4-yl)benzamide], the concentration for half-maximal inhibition (IC50) in the assay with SK-BR-3 cells amounted to 60 nM; in assay [1] it was 210 nM.

With `Cc1cc2c(-n3cnc(-c4cnn(C)c4)c3)cccc2c(-c2ccc(C(N)=O)c(N)c2)n1` [Example 71, 2-Amino-4-(3-methyl-5-(4-(1-methyl-1H-pyrazol-4-yl)-1H-imidazol-1-yl)isoquinolin-1-yl)benzamide], the IC50 was 210 nM in the assay with SK-BR-3 cells and 170 nM in assay [1].

Consider `CCNc1cc(-c2nccc3c(-n4cnc(-c5cnn(C)c5)c4)ccnc23)ccc1C(N)=O` [Example 72, 2-Ethylamino-4-(4-(4-(1-methyl-1H-pyrazol-4-yl)-1H-imidazol-1-yl)1,7-naphthyridin-8-yl)benzamide], for which the IC50 in the assay on SK-BR-3 cells is 1740 nM; in assay [1], 740 nM.

In the case of `Cn1cc(-c2cn(-c3cccc4c(-c5ccc(C(N)=O)cc5N)cc(C(F)(F)F)nc34)cn2)cn1` [Example 73, 3-Amino-4-(8-(4-(1-methyl-1H-pyrazol-4-yl)-1H-imidazol-1-yl)-2-(trifluoromethyl)quinolin-4-yl)benzamide], the IC50 in the assay on SK-BR-3 cells stood at 70 nM; in assay [1], 190 nM.

Take `Cc1cc2c(-n3cnc(-c4cnn(C)c4)c3)cccc2c(-c2ccc(C(N)=O)cc2N)n1` [Example 74, 3-Amino-4-(3-methyl-5-(4-(1-methyl-1H-pyrazol-4-yl)-1H-imidazol-1-yl)isoquinolin-1-yl)benzamide]: the values for the IC50 (in the assay with SK-BR-3 cells; in assay [1]) were 1120 nM and 440 nM, respectively.

Regarding `Cn1cc(-c2cn(-c3cccc4c(-c5ccc(C(N)=O)cc5N)nc(C(F)(F)F)nc34)cn2)cn1` [Example 75, 3-Amino-4-(8-(4-(1-methyl-1H-pyrazol-4-yl)-1H-imidazol-1-yl)-2-(trifluoromethyl)quinazolin-4-yl)benzamide], the concentration for half-maximal inhibition (IC50) with SK-BR-3 cells is 330 nM; in assay [1] it was 210 nM.

For `CC(C)(C)Nc1cc(-c2cc(C(F)(F)F)nc3c(-n4cnc(-c5cccnc5)c4)cccc23)ccc1C(N)=O` [Example 76, 2-(Tert-butylamino)-4-(8-(4-(pyridin-3-yl)-1H-imidazol-1-yl)-2-(trifluoromethyl)quinolin-4-yl)benzamide], the values for the IC50 (in the assay on SK-BR-3 cells; in assay [1]) were 40 nM and 200 nM, respectively.

`CCNc1cc(-c2cc(C(F)(F)F)nc3c(-n4cnc(-c5cccnc5)c4)cccc23)ccc1C(N)=O` [Example 77, 2-(Ethylamino)-4-(8-(4-(pyridin-3-yl)-1H-imidazol-1-yl)-2-(trifluoromethyl)quinolin-4-yl)benzamide]: the IC50 in the assay on SK-BR-3 cells was 10 nM; in assay [1] it was 170 nM.

As for `NC(=O)c1ccc(-c2cc(C(F)(F)F)nc3c(-n4cnc(-c5cccnc5)c4)cccc23)cc1N` [Example 78, 2-Amino-4-(8-(4-(pyridin-3-yl)-1H-imidazol-1-yl)-2-(trifluoromethyl)quinolin-4-yl)benzamide], the 50% inhibitory concentration (IC50) in the assay with SK-BR-3 cells came to 30 nM; in assay [1] it was 180 nM.

Consider `Cn1cc(-c2cn(-c3cccc4c(-c5ccc(C(N)=O)c(NC(C)(C)C)c5)nc(C(F)(F)F)nc34)cn2)cn1` [Example 79, 2-(Tert-butylamino)-4-(8-(4-(1-methyl-1H-pyrazol-4-yl)-1H-imidazol-1-yl)-2-(trifluoromethyl)quinazolin-4-yl)benzamide], for which the IC50 in the assay on SK-BR-3 cells was determined as 20 nM; in assay [1], 320 nM.
